Laboratory results taken from US20230339866A1, “Quinazoline compounds and the use thereof in the treatment of cancer” (TROBIO THERAPEUTICS PTY LTD, priority 2020, published 2023).

Columns and labels:
A549 (NSCLC) = assay: Anti-proliferative activity (Cell-Titre luminescence) against A549 non-small cell lung cancer cells; assay type: cell-based; conditions: Homo sapiens, A549, 72 h, 72 h exposure, Cell-Titre luminescent reagent
Protocol: (§1) The ability of compounds of the invention to inhibit the proliferation of cancer cells representative of non-small cell lung cancer and ovarian cancer (Table 2), pancreatic cancer, colorectal cancer and prostate cancer (Table 3) was assessed. Briefly, a predetermined number of cells as calculated from cell growth assays for each of the cell lines employed were seeded into their respective culture medium (using ATCC culture parameters—http://www.atcc.org) and cultured for 24 h at 37° C. and 5% CO2 in 96-well culture plates. Once attached, each cell line was then exposed to various concentrations of each respective analogue (30, 10, 3, 1, 0.3 and 0.1 μM), cultured for a further 72 h and exposed to Cell-Titre luminescent reagent (100 μL/well) for a further 30 min. Luminescence was captured using an EnVision multilabel reader and the data for each analogue concentration compared against no treatment control. Cell viability was normalised to control (vehicle alone) and dose response curves, and half maximal effective concentration (EC50) values were determined using Graph Pad Prism 6 (nonlinear regression sigmoidal dose-response variable slope).

A2780 (ovarian) = assay: Anti-proliferative activity (Cell-Titre luminescence) against A2780 ovarian cancer cells; assay type: cell-based; conditions: Homo sapiens, A2780, 72 h, 72 h exposure, Cell-Titre luminescent reagent
Protocol: as §1

SMILES | IC50 (A549 (NSCLC)) [µM] | IC50 (A2780 (ovarian)) [µM]
CN1CCN(CCNc2nc(NCCc3cccs3)nc3ccccc23)CC1 [Compound 147, N^4-(2-(4-methylpiperazin-1-yl)ethyl)-N^2-(2-(thiophen-2-yl)ethyl)quinazoline-2,4-diamine] | 3.18 | 2.81
CN(C)CCNc1nc(-n2cccc2)nc2ccccc12 [Compound 99, N^1-(2-(1H-pyrrol-1-yl)quinazolin-4-yl)-N^2,N^2-dimethylethane-1,2-diamine] | 22.2 | 10.3
CN1CCN(CCNc2nc(NCCc3ccccc3)nc3ccccc23)CC1 [Compound 50, N^4-(2-(4-methylpiperazin-1-yl)ethyl)-N^2-phenethylquinazoline-2,4-diamine] | 5.3 | 7.68
CN(C)CCCNc1nc(-c2ccc[nH]2)nc2ccccc12 [Compound 101, N^1-(2-(1H-pyrrol-2-yl)quinazolin-4-yl)-N^3,N^3-dimethylpropane-1,3-diamine] | 11.6 | 12.5
OCCNc1nc(-c2ccoc2)nc2ccccc12 [Compound 23, 2-((2-(furan-3-yl)quinazolin-4-yl)amino)ethan-1-ol] | > 30 | > 30
CN(C)CCNc1nc(NCCc2ccc(F)cc2)nc2ccccc12 [Compound 68, N^4-(2-(dimethylamino)ethyl)-N^2-(4-fluorophenethyl)quinazoline-2,4-diamine] | 6.65 | 3.91
CN(C)CCNc1nc(Nc2cccc(F)c2)nc2ccccc12 [Compound 63, N^4-(2-(dimethylamino)ethyl)-N^2-(3-fluorophenyl)quinazoline-2,4-diamine] | 19.8 | 5.67
CN1CCN(CCNc2nc(NCc3ccc(C(F)(F)F)cc3)nc3ccccc23)CC1 [Compound 47, N^4-(2-(4-methylpiperazin-1-yl)ethyl)-N^2-(4-(trifluoromethyl)benzyl)quinazoline-2,4-diamine] | 3.28 | 6.13
CN1CCN(CCNc2nc(NCCc3ccc(C#N)cc3)nc3ccccc23)CC1 [Compound 131, 4-(2-((4-((2-(4-methylpiperazin-1-yl)ethyl)amino)quinazolin-2-yl)amino)ethyl)benzonitrile] | 11.5 | 3
CN1CCN(CCNc2nc(NCCc3cc(F)c(F)c(F)c3)nc3ccccc23)CC1 [Compound 141, N^4-(2-(4-methylpiperazin-1-yl)ethyl)-N^2-(3,4,5-trifluorophenethyl)quinazoline-2,4-diamine] | 3.3 | 1.22
CN1CCN(CCNc2nc(Nc3ccccc3)nc3ccccc23)CC1 [Compound 40, N^4-(2-(4-methylpiperazin-1-yl)ethyl)-N^2-phenylquinazoline-2,4-diamine] | 6.27 | 4.34
OCCNc1nc(N2CCCC2)nc2ccccc12 [Compound 24, 2-((2-(pyrrolidin-1-yl)quinazolin-4-yl)amino)ethan-1-ol] | > 30 | > 30
CN1CCN(CCNc2nc(SCCc3cccc(C(F)(F)F)c3)nc3ccccc23)CC1 [Compound 151, N-(2-(4-methylpiperazin-1-yl)ethyl)-2-((3-(trifluoromethyl)phenethyl)thio)quinazolin-4-amine] | 7.41 | 5.81
c1csc(-c2nc(NCCc3c[nH]cn3)c3ccccc3n2)c1 [Compound 104, N-(2-(1H-imidazol-4-yl)ethyl)-2-(thiophen-2-yl)quinazolin-4-amine] | > 30 | > 30
OCCNc1nc(Nc2cccc(C(F)(F)F)c2)nc2ccccc12 [Compound 27, 2-((2-((3-(trifluoromethyl)phenyl)amino)quinazolin-4-yl)amino)ethan-1-ol] | 2.84 | 6.74
CN(C)CCCNc1nc(Nc2ccc(F)cc2)nc2ccccc12 [Compound 73, N^4-(3-(dimethylamino)propyl)-N^2-(4-fluorophenyl)quinazoline-2,4-diamine] | 11.7 | 2.13
CN1CCN(CCNc2nc(NCCc3ccco3)nc3ccccc23)CC1 [Compound 148, N^2-(2-(furan-2-yl)ethyl)-N^4-(2-(4-methylpiperazin-1-yl)ethyl)quinazoline-2,4-diamine] | > 30 | 7.77
CN1CCN(CCNc2nc(NCCc3ccccn3)nc3ccccc23)CC1 [Compound 144, N^4-(2-(4-methylpiperazin-1-yl)ethyl)-N^2-(2-(pyridin-2-yl)ethyl)quinazoline-2,4-diamine] | 27.8 | 9.37
CN1CCN(CCNc2nc(NCCc3cccnc3)nc3ccccc23)CC1 [Compound 145, N^4-(2-(4-methylpiperazin-1-yl)ethyl)-N^2-(2-(pyridin-3-yl)ethyl)quinazoline-2,4-diamine] | > 30 | 10.9
COc1ccc(CCNc2nc(NCCN(C)C)c3ccccc3n2)cc1 [Compound 65, N^4-(2-(dimethylamino)ethyl)-N^2-(4-methoxyphenethyl)quinazoline-2,4-diamine] | 19.4 | 6.17

SMILES | IC50 (A549 (NSCLC)) [µM] | IC50 (A2780 (ovarian)) [µM]
CCc1ccc(CCNc2nc(NCCCN(C)C)c3ccccc3n2)cc1 [Compound 76, N^4-(3-(dimethylamino)propyl)-N^2-(4-ethylphenethyl)quinazoline-2,4-diamine] | 8.88 | 7.11
COc1cccc(Nc2nc(NCCO)c3ccccc3n2)c1 [Compound 29, 2-((2-((3-methoxyphenyl)amino)quinazolin-4-yl)amino)ethan-1-ol] | 9.21 | 6.91
NCCCNc1nc(NCCc2cccc(C(F)(F)F)c2)nc2ccccc12 [Compound 119, N^4-(3-aminopropyl)-N^2-(3-(trifluoromethyl)phenethyl)quinazoline-2,4-diamine] | 2.46 | 0.759
COCCNc1nc(NCCc2cccc(C(F)(F)F)c2)nc2ccccc12 [Compound 116, N^4-(2-methoxyethyl)-N^2-(3-(trifluoromethyl)phenethyl)quinazoline-2,4-diamine] | 3.6 | 1.39
NCCNc1nc(NCCc2cccc(C(F)(F)F)c2)nc2ccccc12 [Compound 118, N^4-(2-aminoethyl)-N^2-(3-(trifluoromethyl)phenethyl)quinazoline-2,4-diamine] | 4.05 | 1.92
CC(C)C(CNc1nc(-n2cccc2)nc2ccccc12)N1CCN(C)CC1 (stereo not drawn) [Compound 9, N-(3-methyl-2-(4-methylpiperazin-1-yl)butyl)-2-(1H-pyrrol-1-yl)quinazolin-4-amine] | 4.94 | 5.79
OCCNc1nc(NCCc2ccccc2)nc2ccccc12 [Compound 35, 2-((2-(phenethylamino)quinazolin-4-yl)amino)ethan-1-ol] | > 30 | 7.47
COc1ccc(CNc2nc(NCCO)c3ccccc3n2)cc1 [Compound 34, 2-((2-((4-methoxybenzyl)amino)quinazolin-4-yl)amino)ethan-1-ol] | 14.1 | 12.8
c1c[nH]c(-c2nc(NCCc3c[nH]cn3)c3ccccc3n2)c1 [Compound 106, N-(2-(1H-imidazol-4-yl)ethyl)-2-(1H-pyrrol-2-yl)quinazolin-4-amine] | 15.6 | 8.43
CN1CCN(CCNc2nc(NCCc3ccc(F)cc3)nc3ccccc23)CC1 [Compound 59, N^2-(4-fluorophenethyl)-N^4-(2-(4-methylpiperazin-1-yl)ethyl)quinazoline-2,4-diamine] | 3.7 | 5.54
OCCNc1nc(NCCc2cccc(C(F)(F)F)c2)nc2ccccc12 [Compound 36, 2-((2-((3-(trifluoromethyl)phenethyl)amino)quinazolin-4-yl)amino)ethan-1-ol] | 2.67 | 2.32
OCCNc1nc(-c2cccs2)nc2ccccc12 [Compound 18, 2-((2-(thiophen-2-yl)quinazolin-4-yl)amino)ethan-1-ol] | > 30 | > 30
CN(C)CCCNc1nc(-c2cc[nH]c2)nc2ccccc12 [Compound 102, N^1-(2-(1H-pyrrol-3-yl)quinazolin-4-yl)-N^3,N^3-dimethylpropane-1,3-diamine] | 7.45 | 1.32
CN1CCN(CCNc2nc(NCCc3ccccc3F)nc3ccccc23)CC1 [Compound 121, N^2-(2-fluorophenethyl)-N^4-(2-(4-methylpiperazin-1-yl)ethyl)quinazoline-2,4-diamine] | 4 | 2.38
OCCNc1nc(Nc2ccccc2O)nc2ccccc12 [Compound 149] | 3.51 | 5.04
c1ccc2c(NCCc3c[nH]cn3)nc(-c3ccsc3)nc2c1 [Compound 105, N-(2-(1H-imidazol-4-yl)ethyl)-2-(thiophen-3-yl)quinazolin-4-amine] | 24.1 | 9.05
CN(C)CCNc1nc(NCCc2cccc(F)c2)nc2ccccc12 [Compound 67, N^4-(2-(dimethylamino)ethyl)-N^2-(3-fluorophenethyl)quinazoline-2,4-diamine] | 5.9 | 7.59
COc1cccc(CNc2nc(NCCN3CCN(C)CC3)c3ccccc3n2)c1 [Compound 48, N^2-(3-methoxybenzyl)-N^4-(2-(4-methylpiperazin-1-yl)ethyl)quinazoline-2,4-diamine] | 7.4 | 4.52
CN1CCN(CCNc2nc(NCCc3cc(Cl)cc(Cl)c3)nc3ccccc23)CC1 [Compound 139, N^2-(3,5-dichlorophenethyl)-N^4-(2-(4-methylpiperazin-1-yl)ethyl)quinazoline-2,4-diamine] | 3.44 | 1.1
